Assay results reported in patent US20250019385A1, “SPIROCYCLIC ANNULATED 2-AMINO-3-CYANO THIOPHENES AND DERIVATIVES FOR THE TREATMENT OF CANCER” (Boehringer Ingelheim International GmbH, priority 2023, published 2025).

test system: not listed separately; experiment: Metabolic (microsomal) stability assay, human liver microsomes (HLM); assay type: in vitro ADME; conditions: 1 μM test compound, predicted clearance as percent of liver blood flow
Protocol: The metabolic degradation of the test compound is assayed at 37° C. with pooled liver microsomes (mouse (MLM), rat (RLM) or human (HLM)). The final incubation volume of 48 μL per time point contains TRIS buffer (pH 7.5; 0.1 M), magnesium chloride (6.5 mM), microsomal protein (0.5 mg/mL for mouse/rat, 1 mg/mL for human specimens) and the test compound at a final concentration of 1 μM. Following a short preincubation period at 37° C., the reactions are initiated by addition of 12 μL beta-nicotinamide adenine dinucleotide phosphate, reduced form (NADPH, 10 mM) and terminated by transferring an aliquot into solvent after different time points (0, 5, 15, 30, 60 min). Additionally, the NADPH-independent degradation is monitored in incubations without NADPH, terminated at the last time point by addition of acetonitrile. The quenched incubations are pelleted by centrifugation (4,000 rpm, 15 min). An aliquot of the supernatant is assayed by LC-MS/MS to quantify the concentration of parent compound in the individual samples.
In vitro intrinsic clearance (CLint,in vitro) is calculated from the time course of the disappearance of the test drug during the microsomal incubation. Each plot is fitted to the first-order elimination rate constant as C(t)=C0*exp(−ke*t), where C(t) and C0 are the concentration of unchanged test drug at incubation time t and that at preincubation and ke is the disappearance rate constant of the unchanged drug. Subsequently, CLint, in vitro (μL min^−1·amount protein) values are converted to predicted CLint,in vivo (mL min^−1·kg^−1) from incubation parameters according to the equation CLint, in vivo=CLint, in vitro×(incubation volume (mL)/amount protein (mg))×(amount protein (mg)/g liver tissue)×(liver weight/body wt.).
For better across species comparison the predicted clearance is expressed as percent of the liver blood flow [% QH] (mL min^−1·kg^−1) in the individual species. In general, high stability (corresponding to low % QH) of the compounds across species is desired.

Structure (SMILES) | HLM QH
CO[C@H]1CCN(C)[C@@H]1[C@H](C)Oc1nc(-c2onc3c2CCC[C@@]32CCCc3sc(N)c(C#N)c32)nc2c1n(C)c(=O)n2[C@@H]1CCCOC1 [I-6] | 73%
C[C@H](Oc1nc(-c2onc3c2CCC[C@@]32CCCc3sc(N)c(C#N)c32)nc2c1n(C)c(=O)n2[C@@H]1CCOC1)[C@@H]1CC[C@H](C)N1C [I-26] | 42%
C[C@H](Oc1nc(-c2onc3c2CCC[C@@]32CCCc3sc(N)c(C#N)c32)nc2c1n(C)c(=O)n2[C@@H]1CC2CCC1O2)[C@@H]1CCCN1C (stereo partly shown) [I-18] | 31%

Continued, values first:

HLM QH | Structure (SMILES)
80% | CO[C@H]1CCN(C)[C@@H]1[C@H](C)Oc1nc(-c2noc3c2CCC[C@@]32CCCc3sc(N)c(C#N)c32)nc2c1n(C)c(=O)n2[C@@H]1CCCOC1 [II-3]
40% | C[C@H](Oc1nc(-c2noc3c2CCC[C@@]32CCCc3sc(N)c(C#N)c32)nc2c1n(C)c(=O)n2[C@@H]1CCOC1)[C@@H]1CCCN1C [II-2]

test system: AsPC-1 cells; experiment: AsPC-1 CTG proliferation assay (120 h) (pancreatic cancer, G12D); assay type: cell-based; conditions: Homo sapiens, ASPC1
Protocol: (§1) AsPC-1 cells (ATCC CRL-1682) are dispensed into black 384-well plates, flat and clear bottom (Greiner, PNr. 781091) at a density of 500 cells per well in 60 μl RPMI ATCC-Formulation (PAN P04-18047)+10% FCS (fetal calf serum, HyClone, SH30084.03). Cells are incubated overnight at 37° C. in a humidified tissue culture incubator at 5% CO2. Compounds (10 mM stock in DMSO) are added at logarithmic dose series using the ECHO acoustic liquid handler system (Beckman Coulter), normalizing for added DMSO and including DMSO controls. All compound treatments are performed in technical duplicates. For the TO time point measurement, untreated cells are analyzed at the time of compound addition. Plates are incubated for 120 h, and cell viability is measured using CellTiter-Glo luminescent cell viability reagent (Promega product code G7570). Viability (stated as percent of control) is defined as relative luminescence units RLU of each well divided by the RLU of cells in DMSO controls. IC50 values are determined from viability measurements by non-linear regression using a four-parameter model.
(§2) IC50 values of representative compounds according to the invention measured with these assays in the indicated cell lines are presented in Table 46.

Structure (SMILES) | IC50
CO[C@H]1CCN(C)[C@@H]1[C@H](C)Oc1nc(-c2onc3c2CCC[C@@]32CCCc3sc(N)c(C#N)c32)nc2c1n(C)c(=O)n2[C@@H]1CCCOC1 [I-6] | 607 nM
C[C@H](Oc1nc(-c2onc3c2CCC[C@@]32CCCc3sc(N)c(C#N)c32)nc2c1n(C)c(=O)n2[C@@H]1CCOC1)[C@@H]1CC[C@H](C)N1C [I-26] | 854 nM
C[C@H](Oc1nc(-c2onc3c2CCC[C@@]32CCCc3sc(N)c(C#N)c32)nc2c1n(C)c(=O)n2[C@@H]1CC2CCC1O2)[C@@H]1CCCN1C (stereo partly shown) [I-18] | 4320 nM

Continued, values first:

IC50 | Structure (SMILES)
236 nM | CO[C@H]1CCN(C)[C@@H]1[C@H](C)Oc1nc(-c2noc3c2CCC[C@@]32CCCc3sc(N)c(C#N)c32)nc2c1n(C)c(=O)n2[C@@H]1CCCOC1 [II-3]
338 nM | C[C@H](Oc1nc(-c2noc3c2CCC[C@@]32CCCc3sc(N)c(C#N)c32)nc2c1n(C)c(=O)n2[C@@H]1CCOC1)[C@@H]1CCCN1C [II-2]

test system: SK-CO-1 cells; experiment: SK-CO-1 CTG proliferation assay (120 h) (CRC, G12V); assay type: cell-based; conditions: Homo sapiens
Protocol: as §1, with “SK—CO-1” for “AsPC-1”, “HTB-39)” for “CRL-1682)”, “EMEM (Sigma M5650)+10%” for “RPMI ATCC-Formulation (PAN P04-18047)+10%”
as §2

Structure (SMILES) | IC50
CO[C@H]1CCN(C)[C@@H]1[C@H](C)Oc1nc(-c2onc3c2CCC[C@@]32CCCc3sc(N)c(C#N)c32)nc2c1n(C)c(=O)n2[C@@H]1CCCOC1 [I-6] | 7 nM
C[C@H](Oc1nc(-c2onc3c2CCC[C@@]32CCCc3sc(N)c(C#N)c32)nc2c1n(C)c(=O)n2[C@@H]1CCOC1)[C@@H]1CC[C@H](C)N1C [I-26] | 10 nM
C[C@H](Oc1nc(-c2onc3c2CCC[C@@]32CCCc3sc(N)c(C#N)c32)nc2c1n(C)c(=O)n2[C@@H]1CC2CCC1O2)[C@@H]1CCCN1C (stereo partly shown) [I-18] | 362 nM

Further lines, results first:

IC50 | Structure (SMILES)
5 nM | CO[C@H]1CCN(C)[C@@H]1[C@H](C)Oc1nc(-c2noc3c2CCC[C@@]32CCCc3sc(N)c(C#N)c32)nc2c1n(C)c(=O)n2[C@@H]1CCCOC1 [II-3]
3 nM | C[C@H](Oc1nc(-c2noc3c2CCC[C@@]32CCCc3sc(N)c(C#N)c32)nc2c1n(C)c(=O)n2[C@@H]1CCOC1)[C@@H]1CCCN1C [II-2]

test system: NCI-H358 cells; experiment: NCI-H358 CTG proliferation assay (120 h) (NSCLC, G12C); assay type: cell-based; conditions: Homo sapiens
Protocol: as §1, with “NCI-H358” for “AsPC-1”, “No. CRL-5807)” for “CRL-1682)”, “200” for “500”, “RPMI-1640” for “RPMI”, “(Gibco #A10491)+10%” for “(PAN P04-18047)+10%”, “serum).” for “serum, HyClone, SH30084.03).”
as §2

Structure (SMILES) | IC50
CO[C@H]1CCN(C)[C@@H]1[C@H](C)Oc1nc(-c2onc3c2CCC[C@@]32CCCc3sc(N)c(C#N)c32)nc2c1n(C)c(=O)n2[C@@H]1CCCOC1 [I-6] | 4 nM
C[C@H](Oc1nc(-c2onc3c2CCC[C@@]32CCCc3sc(N)c(C#N)c32)nc2c1n(C)c(=O)n2[C@@H]1CCOC1)[C@@H]1CC[C@H](C)N1C [I-26] | 7 nM
C[C@H](Oc1nc(-c2onc3c2CCC[C@@]32CCCc3sc(N)c(C#N)c32)nc2c1n(C)c(=O)n2[C@@H]1CC2CCC1O2)[C@@H]1CCCN1C (stereo partly shown) [I-18] | 239 nM

Further lines, results first:

IC50 | Structure (SMILES)
8 nM | CO[C@H]1CCN(C)[C@@H]1[C@H](C)Oc1nc(-c2noc3c2CCC[C@@]32CCCc3sc(N)c(C#N)c32)nc2c1n(C)c(=O)n2[C@@H]1CCCOC1 [II-3]
4 nM | C[C@H](Oc1nc(-c2noc3c2CCC[C@@]32CCCc3sc(N)c(C#N)c32)nc2c1n(C)c(=O)n2[C@@H]1CCOC1)[C@@H]1CCCN1C [II-2]

test system: NCI-H727 cells; experiment: NCI-H727 CTG proliferation assay (120 h) (lung cancer, G12V); assay type: cell-based; conditions: Homo sapiens
Protocol: as §1, with “NCI-H727” for “AsPC-1”, “No. CRL-5815)” for “CRL-1682)”
as §2

Structure (SMILES) | IC50
CO[C@H]1CCN(C)[C@@H]1[C@H](C)Oc1nc(-c2onc3c2CCC[C@@]32CCCc3sc(N)c(C#N)c32)nc2c1n(C)c(=O)n2[C@@H]1CCCOC1 [I-6] | 3 nM
C[C@H](Oc1nc(-c2onc3c2CCC[C@@]32CCCc3sc(N)c(C#N)c32)nc2c1n(C)c(=O)n2[C@@H]1CCOC1)[C@@H]1CC[C@H](C)N1C [I-26] | 4 nM
C[C@H](Oc1nc(-c2onc3c2CCC[C@@]32CCCc3sc(N)c(C#N)c32)nc2c1n(C)c(=O)n2[C@@H]1CC2CCC1O2)[C@@H]1CCCN1C (stereo partly shown) [I-18] | 170 nM

Other lines, results leading:

IC50 | Structure (SMILES)
5 nM | CO[C@H]1CCN(C)[C@@H]1[C@H](C)Oc1nc(-c2noc3c2CCC[C@@]32CCCc3sc(N)c(C#N)c32)nc2c1n(C)c(=O)n2[C@@H]1CCCOC1 [II-3]
3 nM | C[C@H](Oc1nc(-c2noc3c2CCC[C@@]32CCCc3sc(N)c(C#N)c32)nc2c1n(C)c(=O)n2[C@@H]1CCOC1)[C@@H]1CCCN1C [II-2]
